Measurements: patent US20250171423A1, “PHARMACEUTICAL COMPOUNDS FOR THE TREATMENT OF COMPLEMENT MEDIATED DISORDERS” (Achillion Pharmaceuticals, Inc., priority 2020, published 2025)

These molecules were tested against T1, Human complement C1s enzyme (Homo sapiens, UniProt P09871) (assay: Human C1s Enzyme Assay). Conditions: human C1s 1.16 nM, 5 min preincubation, substrate Z-L-Lys-SBzl 100 μM, A405; read-out: C1s Protease Activity.
T1 construct: purified from human serum, Complement Technology, Inc; purchased Complement Technology, Inc; host or cells: human serum
T1 sequence (P09871 438-688 limits assumed): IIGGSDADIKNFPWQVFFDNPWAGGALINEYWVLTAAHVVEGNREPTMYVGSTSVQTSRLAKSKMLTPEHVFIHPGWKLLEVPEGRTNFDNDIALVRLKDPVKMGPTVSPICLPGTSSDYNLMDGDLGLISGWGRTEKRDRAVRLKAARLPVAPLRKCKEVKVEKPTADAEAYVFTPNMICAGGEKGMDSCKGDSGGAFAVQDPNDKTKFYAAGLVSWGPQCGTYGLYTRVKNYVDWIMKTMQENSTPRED
T1 sequence (P09871 16-437 partner limits assumed): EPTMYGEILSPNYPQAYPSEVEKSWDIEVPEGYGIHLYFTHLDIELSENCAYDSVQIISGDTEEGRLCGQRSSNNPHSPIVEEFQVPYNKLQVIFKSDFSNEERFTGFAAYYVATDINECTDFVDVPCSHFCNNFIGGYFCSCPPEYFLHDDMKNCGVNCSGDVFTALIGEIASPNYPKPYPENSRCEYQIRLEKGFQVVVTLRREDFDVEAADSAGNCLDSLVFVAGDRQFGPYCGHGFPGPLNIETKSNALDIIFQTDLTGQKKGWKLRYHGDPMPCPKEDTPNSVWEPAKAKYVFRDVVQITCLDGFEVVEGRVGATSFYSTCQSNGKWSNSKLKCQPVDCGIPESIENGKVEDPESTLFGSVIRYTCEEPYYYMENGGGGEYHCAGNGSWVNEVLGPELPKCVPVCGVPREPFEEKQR
Assay type: biochemical
How it was run: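 C1s purified from human serum (1.16 nM final) was preincubated with compound for 5 min at room temperature in 50 mM Tris, 1 M NaCl, pH 7.5. Z-L-Lys-SBzl and DTNB were then added at 100 μM each, and A405 was followed for 30 min. IC50 came from nonlinear regression of reaction rates.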

Structure (SMILES)	IC50 [nM]
N=C(N)c1csc(CNC(=O)[C@@H]2C[C@](F)(CO)CN2C(=O)CNC(=O)CCCOc2ccccc2)c1 [Compound 66, (2S,4R)-N-((4-carbamimidoylthiophen-2-yl)methyl)-4-fluoro-4-(hydroxymethyl)-1-((4-phenoxybutanoyl)glycyl)pyrrolidine-2-carboxamide]	< 100
N=C(N)c1csc([C@H](CO)NC(=O)[C@@H]2C[C@@H](OC(F)F)CN2C(=O)CNC(=O)c2ccc(Oc3ccccc3)cc2)c1 [Compound 198, (2S,4R)-N-((S)-1-(4-carbamimidoylthiophen-2-yl)-2-hydroxyethyl)-4-(difluoromethoxy)-1-((4-phenoxybenzoyl)glycyl)pyrrolidine-2-carboxamide]	< 100
N=C(N)c1ccc(CNC(=O)[C@@H]2CC3(CN2C(=O)CNC(=O)CCCOc2ccccc2)OCCO3)s1 [Compound 83, (S)-N-((5-carbamimidoylthiophen-2-yl)methyl)-7-((4-phenoxybutanoyl)glycyl)-1,4-dioxa-7-azaspiro[4.4]nonane-8-carboxamide]	< 100
C[C@@H](NC(=O)[C@@H]1C[C@]2(C)C[C@@H]2N1C(=O)CNC(=O)CCCCc1ccccc1)c1cc(C(=N)N)cs1 [Compound 130, (1S,3S,5S)-N-((R)-1-(4-carbamimidoylthiophen-2-yl)ethyl)-5-methyl-2-((5-phenyl-pentanoyl)glycyl)-2-azabicyclo[3.1.0]hexane-3-carboxamide]	< 100
CCOC(=O)c1ccc(OCCCC(=O)NCC(=O)N2[C@H]3C[C@@]3(C)C[C@H]2C(=O)NCc2cc(C(=N)N)cs2)cc1 [Compound 79, Ethyl 4-(4-((2-((1S,3S,5S)-3-(((4-carbamimidoylthiophen-2-yl)methyl)carbamoyl)-5-methyl-2-azabicyclo[3.1.0]hexan-2-yl)-2-oxoethyl)amino)-4-oxobutoxy)benzoate]	< 100
C[C@@]12C[C@@H]1N(C(=O)CN1CCc3cc(Oc4ccccc4)ccc3C1=O)[C@H](C(=O)NCc1cc(C(=N)N)cs1)C2 [Compound 161, (1S,3S,5S)-N-((4-carbamimidoylthiophen-2-yl)methyl)-5-methyl-2-(2-(1-oxo-6-phenoxy-3,4-dihydroisoquinolin-2(1H)-yl)acetyl)-2-azabicyclo[3.1.0]hexane-3-carboxamide]	< 100
CN/C(=N/C#N)c1csc(CNC(=O)[C@@H]2C[C@]3(C)C[C@@H]3N2C(=O)CNC(=O)c2ccc(Oc3ccccc3)cc2)c1 [Compound 236, (1S,3S,5S)-N-((4-((E)-N′-cyano-N-methylcarbamimidoyl)thiophen-2-yl)methyl)-5-methyl-2-((4-phenoxybenzoyl)glycyl)-2-azabicyclo[3.1.0]hexane-3-carboxamide]	> 1000
Cc1cccc([C@H]2C[C@@H](C(=O)NCc3cc(C(=N)N)cs3)N(C(=O)CNC(=O)CCCOc3ccccc3)C2)c1 [Compound 170, (2S,4R)-N-((4-carbamimidoylthiophen-2-yl)methyl)-1-((4-phenoxybutanoyl)glycyl)-4-(m-tolyl)pyrrolidine-2-carboxamide]	< 100
N=C(N)c1csc(CNC(=O)[C@@H]2C[C@H](c3ccc(F)cc3)CN2C(=O)CNC(=O)CCCOc2ccccc2)c1 [Compound 159, (2S,4R)-N-((4-carbamimidoylthiophen-2-yl)methyl)-4-(4-fluorophenyl)-1-((4-phenoxybutanoyl)glycyl)pyrrolidine-2-carboxamide]	< 100
C[C@@H](NC(=O)[C@@H]1C[C@@H](Oc2ccc(F)cc2)CN1C(=O)CNC(=O)CCCOc1ccccc1)c1cc(C(=N)N)cs1 [Compound 119, (2S,4R)-N-((R)-1-(4-carbamimidoylthiophen-2-yl)ethyl)-4-(4-fluorophenoxy)-1-((4-phenoxybutanoyl)glycyl)pyrrolidine-2-carboxamide]	< 100
N=C(N)c1csc(CNC(=O)[C@@H]2C[C@@H](OCC3CC3)CN2C(=O)CNC(=O)c2ccc(Oc3ccccc3)cc2)c1 [Compound 50, (2S,4R)-N-((4-carbamimidoylthiophen-2-yl)methyl)-4-(cyclopropylmethoxy)-1-((4-phenoxybenzoyl)glycyl)pyrrolidine-2-carboxamide]	< 100
C[C@@]12C[C@@H]1N(CCNC(=O)CCCOc1ccccc1)[C@H](C(=O)NCc1cc(C(=N)N)cs1)C2 [Compound 134, (1S,3S,5S)-N-((4-carbamimidoylthiophen-2-yl)methyl)-5-methyl-2-(2-(4-phenoxybutanamido)ethyl)-2-azabicyclo[3.1.0]hexane-3-carboxamide]	> 1000
N=C(N)c1csc(CNC(=O)[C@@H]2C[C@H](OC(F)F)CN2C(=O)CNC(=O)c2ccc(Oc3ccccc3)cc2)c1 [Compound 36, (2S,4S)-N-((4-carbamimidoylthiophen-2-yl)methyl)-4-(difluoromethoxy)-1-((4-phenoxybenzoyl)glycyl)pyrrolidine-2-carboxamide]	< 100
CNC(=O)C(NC(=O)[C@@H]1C[C@@H](OC(F)F)CN1C(=O)CNC(=O)c1ccc(Oc2ccccc2)cc1)c1cc(C(=N)N)cs1 (stereo partly drawn) [Compound 210, (2S,4R)-N-(1-(4-carbamimidoylthiophen-2-yl)-2-(methylamino)-2-oxoethyl)-4-(difluoromethoxy)-1-((4-phenoxybenzoyl)glycyl)pyrrolidine-2-carboxamide]	> 1000
COC[C@@]1(F)C[C@@H](C(=O)N[C@H](C)c2cc(C(=N)N)cs2)N(C(=O)CNC(=O)CCCOc2ccccc2)C1 [Compound 149, (2S,4R)-N-((R)-1-(4-carbamimidoylthiophen-2-yl)ethyl)-4-fluoro-4-(methoxymethyl)-1-((4-phenoxybutanoyl)glycyl)pyrrolidine-2-carboxamide]	< 100
C[C@@H](Oc1ccc(C(=O)NCC(=O)N2[C@H]3C[C@@]3(C)C[C@H]2C(=O)NCc2cc(C(=N)N)cs2)cc1)c1ccccc1 [Compound 223, (1S,3S,5S)-N-((4-carbamimidoylthiophen-2-yl)methyl)-5-methyl-2-((4-((R)-1-phenylethoxy)benzoyl)glycyl)-2-azabicyclo[3.1.0]hexane-3-carboxamide]	< 100
COC[C@@]1(F)C[C@@H](C(=O)N[C@H](C)c2cc(C(=N)N)cs2)N(C(=O)CNC(=O)c2ccc(Oc3ccccc3)cc2)C1 [Compound 196, (2S,4R)-N-((R)-1-(4-carbamimidoylthiophen-2-yl)ethyl)-4-fluoro-4-(methoxymethyl)-1-((4-phenoxybenzoyl)glycyl)pyrrolidine-2-carboxamide]	< 100
N=C(N)c1csc([C@H](NC(=O)[C@@H]2C[C@@H](OC(F)F)CN2C(=O)CNC(=O)c2ccc(Oc3ccccc3)cc2)C2CC2)c1 [Compound 183, (2S,4R)-N-((R)-(4-carbamimidoylthiophen-2-yl)(cyclopropyl)methyl)-4-(difluoromethoxy)-1-((4-phenoxybenzoyl)glycyl)pyrrolidine-2-carboxamide]	> 1000
C[C@@H](NC(=O)[C@@H]1CC2(CN1C(=O)CNC(=O)c1ccc(C(F)(F)F)cc1)OCCO2)c1cc(C(=N)N)cs1 [Compound 263, (S)-N-((R)-1-(4-carbamimidoylthiophen-2-yl)ethyl)-7-((4-(trifluoromethyl)benzoyl)glycyl)-1,4-dioxa-7-azaspiro[4.4]nonane-8-carboxamide]	< 100
N=C(N)c1ccc(CNC(=O)[C@@H]2CC3(CN2C(=O)CNC(=O)c2ccc(Oc4ccccc4)cc2)OCCO3)cn1 [Compound 71, (S)-N-((6-carbamimidoylpyridin-3-yl)methyl)-7-((4-phenoxybenzoyl)glycyl)-1,4-dioxa-7-azaspiro[4.4]nonane-8-carboxamide]	< 100
C[C@@]12C[C@@H]1N(C(=O)CNC(=O)c1ccc(Oc3ccccc3)cc1)[C@H](C(=O)NCc1cc3ccnc(N)c3s1)C2 [Compound 256, (1S,3S,5S)-N-((7-aminothieno[2,3-c]pyridin-2-yl)methyl)-5-methyl-2-((4-phenoxybenzoyl)glycyl)-2-azabicyclo[3.1.0]hexane-3-carboxamide]	> 1000
C[C@@H](NC(=O)[C@@H]1C[C@]2(COCC(=O)O)C[C@@H]2N1C(=O)CNC(=O)CCCOc1ccccc1)c1cc(C(=N)N)cs1 [Compound 148, 2-(((1S,3S,5R)-3-(((R)-1-(4-carbamimidoylthiophen-2-yl)ethyl)carbamoyl)-2-((4-phenoxybutanoyl)glycyl)-2-azabicyclo[3.1.0]hexan-5-yl)methoxy)acetic acid]	< 100
C[C@@]12C[C@@H]1N(C(=O)CNC(=O)c1ccc(Oc3ccccn3)cc1)[C@H](C(=O)NCc1cc(C(=N)N)cs1)C2 [Compound 153, (1S,3S,5S)-N-((4-carbamimidoylthiophen-2-yl)methyl)-5-methyl-2-((4-(pyridin-2-yloxy)benzoyl)glycyl)-2-azabicyclo[3.1.0]hexane-3-carboxamide]	< 100
